Columns and labels:
mouse and human ES cells = experiment: Attempt to repeat reported effects of GSK3 inhibitor on ES cells (Sato et al); type: cell-based; conditions: attempted repeat of published results
Excerpt: Sato N, et al, Nat. Med. 2004, January 10(1) pp 55-63 describe the effects of a Glycogen Synthase Kinase 3 (GSK3) inhibitor, 6-bromoindirubin-3′-oxime, on mouse and human ES cells in serum containing medium. These effects, however, were observed only over a very short time frame, too short for firm conclusions to be drawn, and the influence of unknown factors in the undefined media used in that study may be significant.
Instead, ES cells died or differentiated in GSK-3β inhibitors alone.

mouse ES cells = experiment: Self-renewal culture of mouse ES cells with GSK3 inhibitor and gp130 signalling (LIF); type: cell-based; conditions: for promotion of self renewal of ES cells: GSK3 inhibitor used in ES cell culture
Protocol: (§1) Mouse and human ES cells were grown under various conditions, using N2B27 medium unless otherwise stated and in the presence or absence of the GSK-3β inhibitors CHIR99021, AR-AO144-18, SB216763 and SB415286.
N2 100× stock solution. For 10 ml: mix 1 ml insulin (final concentration 2.5 mg/ml) with 1 ml apo-transferrin (final concentration 10 mg/ml), 0.67 ml BSA (final concentration 5 mg/ml), 33 μl progesterone (final concentration […]), 100 μl putrescine (final concentration 1.6 mg/ml), 10 μl sodium selenite (final concentration 3 μM) and 7.187 ml DMEM/F12. Store at 4° C. and use within 1 month.
DMEM/F12-N2 medium: to 100 ml of DMEM/F12, add 1 ml of N2 100× stock solution. The final concentration of each component of N2 in the DMEM/F12 medium is: insulin, 25 μg/ml; apo-transferrin, 100 μg/ml; progesterone, 6 ng/ml; putrescine, 16 μg/ml; sodium selenite, 30 nM; BSA 50 μg/ml. Store at 4° C. and use within 1 month.
Neurolbasal/B27 medium: to 100 ml of Neurolbasal™ Medium, add 2 ml of B27 and 0.5-1 ml of 200 mM L-glutamine. Store at 4° C. and use within 1 month.
(§2) N2B27 medium: mix DMEM/F12-N2 medium with Neurolbasal/B27 medium in the ratio of 1:1. Add β-mercaptoethanol to a final concentration of 0.1 mM from the 0.1M stock. Store at 4° C. and use within 1 month.

GSK3 = conditions: cited from earlier work
human ES cells [1] = experiment: Human ES cell self-renewal in N2B27 medium on feeder cells; type: cell-based
Protocol: as §2
a) N2B27 medium with bFGF (10 ng/ml) and grown on feeder cells (HS27 human foreskin fibroblasts); and b) the same as a) but adding BMP4 (5 ng/ml) and LIF (10 ng/ml) as well as bFGF.

human ES cells [2] = experiment: Feeder-free, conditioned medium-free culture of human ES cells after forced expression of an Eras gene; type: cell-based
Protocol: as §1, §2
a) in N2B27 medium with bFGF, grown on laminin, fibronectin, vitronectin or matrigel; b) the same as a) but adding BMP4 (5 ng/ml) as well as bFGF; and c) the same as a) but adding a GSK-3β inhibitor as well as bFGF.

[3] = N2B27, feeder cells, BMP4 (5 ng/ml) and LIF (10 ng/ml) added as well as bFGF

O=C1Nc2cc(Br)ccc2/C1=C1/Nc2ccccc2/C1=N\O [6-bromoindirubin-3′-oxime]
effects on mouse and human ES cells versus those described by Sato et al (mouse and human ES cells): effects opposite to those described

COc1ccc(CNC(=O)Nc2ncc([N+](=O)[O-])s2)cc1 [AR-AO144-18]
promotion of self renewal of ES cells (mouse ES cells): promote self renewal of ES cells

Cc1c[nH]c(-c2cnc(NCCNc3ccc(C#N)cn3)nc2-c2ccc(Cl)cc2Cl)n1 [CHIR 99021]
specificity for GSK3 (GSK3): specific for GSK3 | overall result of use in ES cell culture (mouse ES cells): Good results | promotion of self renewal of ES cells (mouse ES cells): promote self renewal of ES cells | E14.1A ES cells weaned off feeder cells (FIG. 1) (mouse ES cells; LIF+CHIR99021 with serum): weaned off feeder cells and grown | self renewal of mouse ES cells (mouse ES cells; combination with LIF in a serum-free, fully defined medium): improved self renewal of mouse ES cells with very little differentiation

Cn1cc(C2=C(c3ccc(Cl)cc3Cl)C(=O)NC2=O)c2ccccc21 [SB216763]
promotion of self renewal of ES cells (mouse ES cells): promote self renewal of ES cells

O=C1NC(=O)C(c2ccccc2[N+](=O)[O-])=C1Nc1ccc(O)c(Cl)c1 [SB415286]
promotion of self renewal of ES cells (mouse ES cells): promote self renewal of ES cells

CHIR 98014
specificity for GSK3 (GSK3): specific for GSK3 | overall result of use in ES cell culture (mouse ES cells): Good results | promotion of self renewal of ES cells (mouse ES cells): promote self renewal of ES cells

LIF: gp130 receptor binding cytokine
sustaining human ES cell self-renewal (human ES cells [1]; [3]): could sustain human ES cell self-renewal

bFGF: FGF receptor agonist
growth of human ES cells in feeder-free, conditioned medium-free conditions (human ES cells [2]; N2B27 with bFGF, on laminin, fibronectin, vitronectin or matrigel): grew in feeder-free and conditioned medium-free conditions | sustaining human ES cell self-renewal (human ES cells [1]; N2B27 medium with bFGF (10 ng/ml), on HS27 human foreskin fibroblast feeder cells): could sustain human ES cell self-renewal

B1: BMP4: agonist of the TGF-β superfamily (protein, UniProt P12644 293-408, looked up)
Bone morphogenetic protein 4: SPKHHSQRARKKNKNCRRHSLYVDFSDVGWNDWIVAPPGYQAFYCHGDCPFPLADHLNSTNHAIVQTLVNSVNSSIPKACCVPTELSAISMLYLDEYDKVVLKNYQEMVVEGCGCR
growth of human ES cells in feeder-free, conditioned medium-free conditions (human ES cells [2]; N2B27 with BMP4 (5 ng/ml) as well as bFGF): grew in feeder-free and conditioned medium-free conditions | sustaining human ES cell self-renewal (human ES cells [1]; [3]): could sustain human ES cell self-renewal

— patent US20090130759A1, “Culture Medium Containing Kinase Inhibitor, and Use Thereof” (The University Court of the University of Edinburgh, priority 2005, published 2009)
